Where two headings read alike, the source gives them in different places.
Key:
[1] = tested on: C8-D1A; assay: MTT assay, C8-D1A astrocytes; format: cell-based; details: C8-D1A mouse astrocytes, 24 h of incubation
Experimental: (§1) Human glioblastoma cell lines (A172 CRL-1620™, U-87 MG HTB-14™, U-118 MG HTB-15™, T98G CRL-1690™) and the mouse astrocyte cell line (C8-D1A CRL-2541™) were obtained from the American Type Culture Collection (ATCC, Manassas, VA, USA). The cell lines were cultured in complete medium: DMEM (Corning, Kennebunk, ME, USA) for C8-D1A and T98G, and EMEM (ATCC, Manassas, VA, USA) for A172, U-87 MG, U118MG. The media were supplemented with 10% foetal bovine serum (Eurx, Gdansk, Poland) and 1% penicillin-streptomycin solution (Corning, Kennebunk, ME, USA). Cells were cultured in cell culture flasks (Sarstedt, Numbrecht, Germany) at 37 °C in 5% CO2. For experiments, cells were washed with phosphate-buffered saline without calcium and magnesium (Corning, Kennebunk, ME, USA) and treated with 0.05% trypsin and 0.02% EDTA (Corning, Kennebunk, ME, USA). Cells were counted using a Sceptre 3.0 cell counter (Merck Millipore, Burlington, MA, USA) prior to seeding into plates. For 6-well plates, 5 x 10^5 cells/mL were seeded, while for 96-well plates (Sarstedt, Numbrecht, Germany), 1 x 10^5 cells/mL were seeded in 100 μL of the medium.
(§2) The cell lines were seeded in 96-well plates and cultured according to the methodology described in the previous section. Cells were then treated with the novel derivatives MM118 and MM119 and the reference compound temozolomide (TMZ) (Sigma-Aldrich, St. Louis, MO, USA) at concentrations of 0.1, 0.25, 0.5, 1.0, 2.5, 5.0, and 10.0 μM for 24 h. The MTT assay was performed using a solution of 3–(4,5-dimethyl-2-thiazolyl)-2,5-diphenyl-2H-tetrazolium bromide (Sigma-Aldrich, St. Louis, MO, USA) at a concentration of 5 mg/mL in phosphate-buffered saline without calcium and magnesium (Corning, Kennebunk, ME, USA). After 24 h incubation with test compounds, 10 μL MTT solution was added to each well, and cells were incubated for another 2 h at 37 °C. The cells were then lysed in 100 μL lysis buffer (25 mM HCl, 2% acetic acid, 3% DMF, and 5% SDS, adjusted to pH 4.7). Absorbance was measured at 570 nm using an Absorbance 96 microplate reader (Byonoy GmbH, Hamburg, Germany).

[2] = tested on: A172; assay: MTT assay, A172; format: cell-based; details: Homo sapiens, A172, 24 h of incubation
Experimental: as §1, §2

[3] = tested on: U-118 MG; assay: MTT assay, U-118 MG; format: cell-based; details: Homo sapiens, 24 h of incubation, read-out: IC50 values ± SEM, MTT assay
Experimental: as §1, §2

[4] = tested on: T98G; assay: MTT assay, T98G; format: cell-based; details: Homo sapiens, 24 h of incubation
Experimental: as §1, §2

[5] = tested on: U-87 MG; assay: MTT assay, U-87 MG; format: cell-based; details: Homo sapiens, 24 h of incubation
Experimental: as §1, §2

[6] = tested on: DNA; design: method as in PMID 36835469; details: comet assays; cited from earlier work
[7] = read-out: IC50 values ± SEM, MTT assay
[8] = A 172, read-out: IC50 values ± SEM, MTT assay
[9] = 24 h, heading: IC50 values ± SEM, MTT assay

| SMILES | IC50 [5, 7] [µM] | IC50 [5, 9] [µM] | IC50 [1, 7] [µM] | IC50 [2, 8] [µM] | IC50 [3] [µM] | IC50 [4, 7] [µM] | DNA damage (single-strand and double-strand breaks) [6] | IC50 [1, 9] [µM] | IC50 ([2]; A 172, 24 h, heading: IC50 values ± SEM, MTT assay) [µM] | IC50 [4, 9] [µM] |
| --- | --- | --- | --- | --- | --- | --- | --- | --- | --- | --- |
| Cc1nn(-c2ccc(S(=O)(=O)N[C@@H](CO)CC(C)C)cc2)c2nn3nnnc3nc12 [MM124] | > 10 | – | > 10 | > 10 | > 10 | > 10 | – | – | – | – |
| Cc1nn(-c2ccc(S(=O)(=O)N[C@H](C)CO)cc2)c2nn3nnnc3nc12 [MM131] | – | – | – | – | – | – | induce DNA damage | – | – | – |
| COC(=O)C1CCCN1S(=O)(=O)c1ccc(-n2nc(C)c3nc4nnnn4nc32)cc1 (stereo not shown) [MM128, Methyl 1-[4–(7-methyl-5H-pyrazolo[4,3-e]tetrazolo[1,5-b][1]^,[2]^,[4]triazin-5-yl)phenylsulfonyl]-pyrrolidine-2-carboxylate] | – | – | – | – | 563 | – | – | – | 1.65 | 1.53 |

Second part, led by results:

| IC50 [5, 7] [µM] | IC50 [5, 9] [µM] | SMILES | IC50 [1, 7] [µM] | IC50 [2, 8] [µM] | IC50 [3] [µM] | IC50 [4, 7] [µM] | DNA damage (single-strand and double-strand breaks) [6] | IC50 [1, 9] [µM] | IC50 ([2]; A 172, 24 h, heading: IC50 values ± SEM, MTT assay) [µM] | IC50 [4, 9] [µM] |
| --- | --- | --- | --- | --- | --- | --- | --- | --- | --- | --- |
| > 10 | – | Cc1nn(-c2ccc(S(=O)(=O)NC[C@H](O)CO)cc2)c2nn3nnnc3nc12 [MM126] | > 10 | > 10 | > 10 | > 10 | – | – | – | – |
| > 10 | – | Cc1nn(-c2ccc(S(=O)(=O)NC[C@@H](O)CO)cc2)c2nn3nnnc3nc12 [MM127] | > 10 | > 10 | > 10 | > 10 | – | – | – | – |
| – | 2.35 | COC(=O)C1CC(O)CN1S(=O)(=O)c1ccc(-n2nc(C)c3nc4nnnn4nc32)cc1 (stereo not shown) [MM129, Methyl (Z)-4-hydroxy-1-[4–(7-methyl-5H-pyrazolo[4,3-e]tetrazolo[1,5-b][1]^,[2]^,[4]triazin-5-yl)phenyl-sulfonyl]pyrrolidine-2-carboxylate] | – | – | – | – | induce DNA damage | 2.86 | – | – |
